Reference: patent publication US8815882B2, “Pyrazole aminopyrimidine derivatives as LRRK2 modulators” (Genentech, Inc., priority 2010, dated 2014)

biological target: T1, LRRK2 (Homo sapiens, UniProt Q5S007, G2019S); experiment: In Vitro LRRK2 Assay (LabChip 3000, fluorescently-labeled peptide substrate, ATP); type: biochemical; details: Table 9; LRRK2 Ki (micromolar); read-out: LRRK2 Ki (KI)
T1 construct: purchased Invitrogen PV4882 (lot 567054A)
Procedure, shortened: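 Read-out was LabChip capillary electrophoresis, resolving phospho- from non-phospho-peptide by fluorescence intensity. The kinase reaction combined enzyme, ATP, test compound and labeled peptide (4 μM working dilution) for 2 h in darkness before stop solution. Values were reported as Ki, from a tight-binding model with Et, S and Km, or as IC50 or percent inhibition.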

T1 sequence (Q5S007 whole entry G2019S): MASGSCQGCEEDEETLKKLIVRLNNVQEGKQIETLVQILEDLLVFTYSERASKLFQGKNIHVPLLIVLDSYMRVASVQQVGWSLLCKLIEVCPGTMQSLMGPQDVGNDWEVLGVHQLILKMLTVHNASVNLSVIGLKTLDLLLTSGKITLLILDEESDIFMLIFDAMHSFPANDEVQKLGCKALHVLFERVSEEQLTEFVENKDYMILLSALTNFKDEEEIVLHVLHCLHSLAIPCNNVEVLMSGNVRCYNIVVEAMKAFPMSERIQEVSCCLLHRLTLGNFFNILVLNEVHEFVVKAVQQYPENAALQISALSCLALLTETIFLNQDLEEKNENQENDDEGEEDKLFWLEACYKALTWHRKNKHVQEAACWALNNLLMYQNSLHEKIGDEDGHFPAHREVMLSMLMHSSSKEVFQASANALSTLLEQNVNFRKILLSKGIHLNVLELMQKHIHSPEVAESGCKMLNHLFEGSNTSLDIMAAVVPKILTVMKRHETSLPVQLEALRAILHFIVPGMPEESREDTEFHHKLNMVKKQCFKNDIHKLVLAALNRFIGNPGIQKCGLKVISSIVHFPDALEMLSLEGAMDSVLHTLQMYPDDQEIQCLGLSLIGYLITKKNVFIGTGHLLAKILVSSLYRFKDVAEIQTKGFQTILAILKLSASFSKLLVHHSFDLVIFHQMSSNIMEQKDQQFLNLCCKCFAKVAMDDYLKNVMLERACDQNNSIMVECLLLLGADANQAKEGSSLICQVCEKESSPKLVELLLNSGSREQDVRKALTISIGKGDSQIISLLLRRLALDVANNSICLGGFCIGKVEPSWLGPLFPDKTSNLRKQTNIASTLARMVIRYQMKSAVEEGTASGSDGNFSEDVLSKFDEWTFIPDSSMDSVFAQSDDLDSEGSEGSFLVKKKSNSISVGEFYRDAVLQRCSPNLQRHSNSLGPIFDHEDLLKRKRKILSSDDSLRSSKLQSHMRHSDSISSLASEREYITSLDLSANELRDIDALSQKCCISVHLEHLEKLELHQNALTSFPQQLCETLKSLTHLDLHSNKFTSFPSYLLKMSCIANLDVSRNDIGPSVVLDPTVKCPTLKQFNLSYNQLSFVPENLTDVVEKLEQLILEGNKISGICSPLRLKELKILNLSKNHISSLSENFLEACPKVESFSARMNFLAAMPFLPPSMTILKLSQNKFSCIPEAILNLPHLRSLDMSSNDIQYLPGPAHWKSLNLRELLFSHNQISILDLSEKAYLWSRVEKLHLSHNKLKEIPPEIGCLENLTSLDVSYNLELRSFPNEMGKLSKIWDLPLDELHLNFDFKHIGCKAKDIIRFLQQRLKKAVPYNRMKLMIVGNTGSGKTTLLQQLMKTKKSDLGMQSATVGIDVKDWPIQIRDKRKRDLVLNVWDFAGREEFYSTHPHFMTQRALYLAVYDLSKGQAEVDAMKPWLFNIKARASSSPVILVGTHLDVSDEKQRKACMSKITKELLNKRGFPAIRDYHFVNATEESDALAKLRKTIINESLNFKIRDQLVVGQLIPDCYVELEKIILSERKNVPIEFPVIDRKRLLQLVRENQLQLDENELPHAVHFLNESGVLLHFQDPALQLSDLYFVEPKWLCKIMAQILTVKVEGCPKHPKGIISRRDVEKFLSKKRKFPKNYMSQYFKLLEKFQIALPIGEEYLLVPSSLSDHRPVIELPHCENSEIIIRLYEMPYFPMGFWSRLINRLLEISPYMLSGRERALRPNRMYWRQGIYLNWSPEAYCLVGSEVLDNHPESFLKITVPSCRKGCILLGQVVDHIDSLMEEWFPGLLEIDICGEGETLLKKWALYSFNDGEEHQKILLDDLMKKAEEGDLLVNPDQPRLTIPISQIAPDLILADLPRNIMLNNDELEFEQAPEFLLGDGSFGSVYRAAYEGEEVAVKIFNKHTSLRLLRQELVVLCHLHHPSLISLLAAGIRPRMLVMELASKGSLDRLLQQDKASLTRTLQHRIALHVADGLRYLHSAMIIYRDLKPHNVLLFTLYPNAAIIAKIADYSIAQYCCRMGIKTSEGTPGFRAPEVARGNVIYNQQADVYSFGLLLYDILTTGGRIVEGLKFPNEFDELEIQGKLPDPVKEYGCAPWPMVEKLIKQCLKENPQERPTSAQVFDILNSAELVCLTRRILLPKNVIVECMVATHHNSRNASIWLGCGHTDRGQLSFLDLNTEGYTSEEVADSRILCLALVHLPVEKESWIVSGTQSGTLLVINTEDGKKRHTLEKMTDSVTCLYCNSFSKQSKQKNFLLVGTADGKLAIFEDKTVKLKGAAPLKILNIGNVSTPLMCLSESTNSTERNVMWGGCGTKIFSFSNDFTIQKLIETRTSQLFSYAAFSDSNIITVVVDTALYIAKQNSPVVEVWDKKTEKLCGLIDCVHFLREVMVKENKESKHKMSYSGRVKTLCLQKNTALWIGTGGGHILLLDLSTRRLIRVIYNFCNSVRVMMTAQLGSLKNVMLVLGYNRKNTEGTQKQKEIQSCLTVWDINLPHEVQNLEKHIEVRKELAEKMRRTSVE

SMILES	Ki [nM]
CNc1nc(Nc2cn(C3CCOCC3)nc2C)ncc1C#N [Example 362, 2-(3-methyl-1-(tetrahydro-2H-pyran-4-yl)-1H-pyrazol-4-ylamino)-4-(methylamino) pyrimidine-5-carbonitrile]	86
CCNc1nc(Nc2cnn(CC)c2C)ncc1C#N [Example 363, 2-(1-ethyl-5-methyl-1H-pyrazol-4-ylamino)-4-(ethylamino) pyrimidine-5-carbonitrile]	6
CNc1nc(Nc2cn(C(F)F)nc2C)ncc1C#N [Example 365, 2-(1-(difluoromethyl)-3-methyl-1H-pyrazol-4-ylamino)-4-(methylamino) pyrimidine-5-carbonitrile]	35
CCCn1ncc(Nc2ncc(C#N)c(NC)n2)c1C [Example 366, 2-(5-methyl-1-propyl-1H-pyrazol-4-ylamino)-4-(methylamino) pyrimidine-5-carbonitrile]	5.4
CNc1nc(Nc2cn(-c3cc(F)cc(F)c3)nc2C)ncc1C#N [Example 367, 2-(1-(3,5-difluorophenyl)-3-methyl-1H-pyrazol-4-ylamino)-4-(methylamino) pyrimidine-5-carbonitrile]	1.8
CNc1nc(Nc2cn(-c3ccc(Cl)cc3)nc2C)ncc1C#N [Example 368, 2-(1-(4-chlorophenyl)-3-methyl-1H-pyrazol-4-ylamino)-4-(methylamino) pyrimidine-5-carbonitrile]	82
CNc1nc(Nc2cnn(-c3ccc(Cl)cc3)c2C)ncc1C#N [Example 369, 2-(1-(4-chlorophenyl)-5-methyl-H-pyrazol-4-ylamino)-4-(methylamino) pyrimidine-5-carbonitrile]	2.5
CNc1nc(Nc2cn(-c3ccccn3)nc2C)ncc1C#N [Example 370, 2-(3-methyl-1-(pyridin-2-yl)-1H-pyrazol-4-ylamino)-4-(methylamino) pyrimidine-5-carbonitrile]	41.5
CCNc1nc(Nc2cnn(C3CCOCC3)c2C)ncc1C#N [Example 371, 4-(ethylamino)-2-(5-methyl-1-(tetrahydro-2H-pyran-4-yl)-1H-pyrazol-4-ylamino) pyrimidine-5-carbonitrile]	5.2
CCNc1nc(Nc2cn(C3CCOCC3)nc2C)ncc1C#N [Example 372, 4-(ethylamino)-2-(3-methyl-1-(tetrahydro-2H-pyran-4-yl)-1H-pyrazol-4-ylamino) pyrimidine-5-carbonitrile]	24
CCNc1nc(Nc2cn(C3COC3)nc2C)ncc1C#N [Example 373, 4-(ethylamino)-2-(3-methyl-1-(oxetan-3-yl)-1H-pyrazol-4-ylamino) pyrimidine-5-carbonitrile]	22.8
CNc1nc(Nc2cnn(C(C)C)c2C)ncc1C#N [Example 374, 2-(1-isopropyl-5-methyl-1H-pyrazol-4-ylamino)-4-(methylamino) pyrimidine-5-carbonitrile]	15.8
COc1nc(Nc2cnn(C)c2C)ncc1C#N [Example 375, 2-(1,5-dimethyl-1H-pyrazol-4-ylamino)-4-methoxy-pyrimidine-5-carbonitrile]	145
Cc1c(Nc2ncc(C#N)c(NCC(F)(F)F)n2)cnn1C [Example 376, 2-(1,5-dimethyl-1H-pyrazol-4-ylamino)-4-(2,2,2-trifluoroethylamino) pyrimidine-5-carbonitrile]	27.5
CCn1ncc(Nc2ncc(C#N)c(OC)n2)c1C [Example 377, 2-(1-ethyl-5-methyl-1H-pyrazol-4-ylamino)-4-methoxypyrimidine-5-carbonitrile]	75
CNc1nc(Nc2cn(CC3CC3)nc2C)ncc1C#N [Example 380, 2-(1-(cyclopropylmethyl)-3-methyl-1H-ylamino)-4-(methylamino) pyrimidine-5-carbonitrile]	45

Other lines, results leading:

Ki [nM]	SMILES
11	CNc1nc(Nc2cnn(C3CCC(F)(F)CC3)c2C)ncc1C#N [Example 381, 2-(1-(4,4-difluorocyclohexyl)-5-methyl-1H-pyrazol-4-ylamino)-4-(methylamino) pyrimidine-5-carbonitrile]
66	Cc1nn(C2COC2)cc1Nc1ncc(C#N)c(NCC(F)(F)F)n1 [Example 382, 2-(3-methyl-1-(oxetan-3-yl)-1H-pyrazol-4-ylamino)-4-(2,2,2-trifluoroethylamino) pyrimidine-5-carbonitrile]
9.6	CNc1nc(Nc2cnn(C3CCOCC3)c2Cl)ncc1C#N [Example 383, 2-(5-chloro-1-(tetrahydro-2H-pyran-4-yl)-1H-pyrazol-4-ylamino)-4-(methylamino) pyrimidine-5-carbonitrile]
19.1	CNc1nc(Nc2cnn(C(F)F)c2C)ncc1C#N [Example 384, 2-(1-Difluoromethyl-5-methyl-1H-pyrazol-4-ylamino)-4-methylamino-pyrimidine-5-carbonitrile]
12.7	CCNc1nc(Nc2cnn(C)c2C)ncc1C#N [Example 385, 2-(1,5-Dimethyl-1H-pyrazol-4-ylamino)-4-ethylamino-pyrimidine-5-carbonitrile]
95.9	CNc1nc(Nc2cnn(-c3ccc(F)cc3)c2C)ncc1C#N [Example 386, 2-[1-(4-Fluoro-phenyl)-5-methyl-1H-pyrazol-4-ylamino]-4-methylamino-pyrimidine-5-carbonitrile]
5.4	CCCn1cc(Nc2ncc(C#N)c(NC)n2)c(C)n1 [Example 387, 4-Methylamino-2-(3-methyl-1-propyl-1H-pyrazol-4-ylamino)-pyrimidine-5-carbonitrile]
32.2	CNc1nc(Nc2cnn(C3COC3)c2C)ncc1C#N [Example 388, 4-Methylamino-2-(5-methyl-1-oxetan-3-yl-1H-pyrazol-4-ylamino)-pyrimidine-5-carbonitrile]
37.2	CNc1nc(Nc2cn(C3COC3)nc2C)ncc1C#N [Example 389, 4-Methylamino-2-(3-methyl-1-oxetan-3-yl-1H-pyrazol-4-ylamino)-pyrimidine-5-carbonitrile]
241	CNc1nc(Nc2cnn(-c3cc(F)cc(F)c3)c2C)ncc1C#N [Example 390, 2-[1-(3,5-Difluoro-phenyl)-5-methyl-1H-pyrazol-4-ylamino]-4-methylamino-pyrimidine-5-carbonitrile]
211	Cc1c(Nc2ncc(C#N)c(OCC(F)F)n2)cnn1C [Example 391, 4-(2,2-Difluoro-ethoxy)-2-(1,5-dimethyl-1H-pyrazol-4-ylamino)-pyrimidine-5-carbonitrile]
266	CNc1nc(Nc2cn(C3CCC(F)(F)CC3)nc2C)ncc1C#N [Example 392, 2-[1-(4,4-Difluoro-cyclohexyl)-3-methyl-1H-pyrazol-4-ylamino]-4-methylamino-pyrimidine-5-carbonitrile]

same assay, conditions: read-out: LRRK2 Ki given in the example

SMILES	Ki [nM]
CNc1nc(Nc2cc(C(=O)N3CCOCC3)nn2C)ncc1Cl [Example 393, (5-(5-chloro-4-(methylamino)pyrimidin-2-ylamino)-1-methyl-1H-pyrazol-3-yl)(morpholino)methanone]	160
CNc1nc(Nc2cn(C(C)(C)C#N)nc2C)ncc1C(F)(F)F [Example 394, 2-methyl-2-(3-methyl-4-(4-(methylamino)-5-(trifluoromethyl)pyrimidin-2-ylamino)-1H-pyrazol-1-yl)propanenitrile]	0.5
